According to publication PMC9705314, “Characterization of a new potent and long-lasting single chain peptide agonist of RXFP1 in cells and in vivo translational models” (Scientific Reports, 2022):
*1 amine or outer side, *2 acyl side, *3 side chain or, on linkers, in order; H or OH if unused. Where a SMILES comes first, the peptide text is derived from it. Side-chain parts run from the residue outwards. [ ]: non-standard residue; d: D form. The star is where a group is joined. γGlu = O=C(O)[C@H](CCC(=O)[*:2])N[*:1]; Stearoyl = CCCCCCCCCCCCCCCCCC(=O)*; Nle = CCCC[C@H](N)C(=O)O; AEEA = NCCOCCOCC(=O)O; Aib = CC(C)(N)C(=O)O

Assays:
Assay type in all cases: cell-based
rat RXFP1 = molecular target: T1, rat RXFP1 (Rattus norvegicus, UniProt Q6R6I6); assay: cAMP HTRF assay in HEK_ratRXFP1 cells
T1 construct: expressed in transfected cells
T1 sequence (Q6R6I6 1-758): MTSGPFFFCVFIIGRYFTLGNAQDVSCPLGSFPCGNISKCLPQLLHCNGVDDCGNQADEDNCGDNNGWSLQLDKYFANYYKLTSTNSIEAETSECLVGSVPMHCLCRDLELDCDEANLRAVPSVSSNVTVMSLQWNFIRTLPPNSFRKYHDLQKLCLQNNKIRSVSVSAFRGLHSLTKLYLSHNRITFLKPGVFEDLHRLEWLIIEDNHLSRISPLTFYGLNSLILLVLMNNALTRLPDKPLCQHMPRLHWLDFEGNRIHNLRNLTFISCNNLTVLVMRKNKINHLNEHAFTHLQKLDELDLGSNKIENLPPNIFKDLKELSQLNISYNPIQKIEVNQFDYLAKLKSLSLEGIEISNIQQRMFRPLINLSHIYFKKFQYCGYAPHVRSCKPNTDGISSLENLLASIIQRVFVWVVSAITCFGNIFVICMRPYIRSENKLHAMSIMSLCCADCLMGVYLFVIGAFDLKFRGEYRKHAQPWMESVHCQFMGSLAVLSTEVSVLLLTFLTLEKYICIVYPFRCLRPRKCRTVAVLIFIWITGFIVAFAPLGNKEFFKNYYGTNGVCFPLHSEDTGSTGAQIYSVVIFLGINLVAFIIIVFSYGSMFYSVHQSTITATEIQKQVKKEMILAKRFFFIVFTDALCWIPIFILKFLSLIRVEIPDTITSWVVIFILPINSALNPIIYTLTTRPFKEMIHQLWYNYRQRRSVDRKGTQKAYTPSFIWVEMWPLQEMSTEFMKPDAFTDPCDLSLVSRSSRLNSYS

RXFP1 [1] = molecular target: T2, RXFP1 (Homo sapiens, UniProt Q9HBX9); assay: cAMP HTRF assay in EA.hy926_hRXFP1 cells; set-up: expressed in transfected cells; host or cells: EA.hy926 (ATCC CRL-2922), lentiviral transduction, puromycin selection
T2 sequence (Q9HBX9 1-757): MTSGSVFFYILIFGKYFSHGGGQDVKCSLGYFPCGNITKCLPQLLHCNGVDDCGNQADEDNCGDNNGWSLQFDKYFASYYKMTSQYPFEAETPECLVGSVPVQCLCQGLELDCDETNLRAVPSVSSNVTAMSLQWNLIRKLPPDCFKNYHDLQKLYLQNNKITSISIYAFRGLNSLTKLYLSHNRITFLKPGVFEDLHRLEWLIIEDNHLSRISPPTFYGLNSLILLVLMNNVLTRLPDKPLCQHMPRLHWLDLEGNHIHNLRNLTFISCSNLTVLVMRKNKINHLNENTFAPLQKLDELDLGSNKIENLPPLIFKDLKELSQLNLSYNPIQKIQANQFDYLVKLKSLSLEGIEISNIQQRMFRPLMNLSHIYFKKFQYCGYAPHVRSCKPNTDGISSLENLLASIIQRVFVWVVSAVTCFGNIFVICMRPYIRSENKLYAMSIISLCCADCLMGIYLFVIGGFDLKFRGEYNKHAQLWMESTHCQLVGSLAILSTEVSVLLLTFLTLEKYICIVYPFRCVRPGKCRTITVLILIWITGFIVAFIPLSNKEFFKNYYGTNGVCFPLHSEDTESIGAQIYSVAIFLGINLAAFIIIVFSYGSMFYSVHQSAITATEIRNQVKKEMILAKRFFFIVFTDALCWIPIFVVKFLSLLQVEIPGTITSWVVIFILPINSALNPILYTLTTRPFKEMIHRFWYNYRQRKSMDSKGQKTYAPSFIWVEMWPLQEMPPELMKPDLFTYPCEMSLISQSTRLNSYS
Protocol: EA.hy926 or EA.hy926_RXFP1 were grown in complete growth medium (DMEM + 10% Fetal Calf serum + 1% Penicillin/Streptomycin + puromycin 0.5 µg/mL) at 37 °C and 5% CO2 in a humidified incubator. When cells reached 80–90% confluency, cells were detached from plastic using Trypsin–EDTA and were plated in 96 or 384-well plates according to the test.
(§1) Cells were plated in low-volume 384-well plates at a density of 4000 cells/well for EA.hy926_RXFP1 cells or 8000 cells/well for OVCAR5 cells in a final volume of 5 µL. The plates were briefly centrifuged at 800 rpm to allow the cell suspension to move to the bottom of the wells and then incubated for 24 h at 37 °C in 5% CO2. 5µL of the diluted compounds were then transferred in 384-well plate containing 5µL of cells in test medium. The assay plates were incubated for 30 min at 37 °C under 5% CO2. After 30 min the reaction was stopped by addition of HTRF revelation reagents with a multidrop dispenser. […]
(§2) After overnight incubation at room temperature, HTRF signal was read at 620 and 665 nm on Phera Star (BMG LAbtech) plate reader. The HTRF signal was calculated as follows: ratio HTRF = [(signal 665 nm)/(signal 620 nm)] × 10^4. […]
(§3) Relative EC50s (EC50rel) were determined with SAS procedure NLIN in SAS system release 9.4 under Unix via Biost@t-SPEED-LTS v2.4 internal software using the 4-parameter logistic model[47]. […]

RXFP1 [2] = molecular target: T2, RXFP1; assay: cAMP HTRF assay in OVCAR5 cells (endogenous RXFP1); set-up: they express significant endogenous levels of RXFP1 (determined by RT-PCR); endogenous in cells; host or cells: OVCAR5 (from NIH, NCI-60 panel)
Protocol: OVCAR5 cells were grown in complete medium (RPMI 1640 + 10% Fetal Calf serum + 1% Penicillin/Streptomycin) at 37 °C and 5% CO2 in a humidified incubator. OVCAR5 cells were detached with accutase for 5 min and were plated in 384-well plates at a density of 8000 cells/well.
as §1, §2, §3

CCCCCCCCCCCCCCCCCC(=O)N[C@@H](CCC(=O)N[C@@H](CCC(=O)N[C@@H](CCC(=O)NCCOCCOCC(=O)NCCOCCOCC(=O)NCCOCCOCC(=O)NCCCC[C@H](NC(=O)[C@H](CCCCNC(C)=O)NC(=O)[C@H](CCCCN)NC(=O)[C@H](CCCNC(=N)N)NC(=O)C(C)(C)NC(=O)[C@H](CO)NC(=O)[C@H](Cc1c[nH]c2ccccc12)NC(=O)[C@@H](NC(=O)[C@H](CO)NC(=O)[C@H](CCCC)NC(=O)CNC(=O)[C@H](CCC(=O)O)NC(=O)C(C)(C)NC(=O)C(C)(C)NC(=O)[C@@H](NC(=O)[C@H](CCCCNC(C)=O)NC(=O)[C@H](C)NC(=O)[C@H](CCCNC(=N)N)NC(=O)[C@@H](NC(=O)[C@H](CCCCN)NC(=O)[C@H](CCC(=O)O)NC(=O)[C@H](CCCNC(=N)N)NC(=O)CNC(=O)[C@H](CCC(=O)O)NC(=O)[C@H](CC(C)C)NC(C)=O)C(C)C)[C@@H](C)CC)[C@@H](C)O)C(N)=O)C(=O)O)C(=O)O)C(=O)O [SA10SC-RLX] (Ac-LEGREKVRAK(Ac)I[Aib][Aib]EG[Nle]STWS[Aib]RKK(Ac)K([AEEA-AEEA-AEEA-γGlu-γGlu-γGlu-Stearoyl])-NH2)
Emax (rat RXFP1; read-out: Emax (%) ± SEM cAMP): 68.5 ± 2.8%
Emax (RXFP1 [1]; read-out: Emax (%) ± SEM cAMP): 93.7 ± 1.1%
Emax (RXFP1 [2]; OVCAR-5, read-out: Emax (%) ± SEM cAMP): 84.1 ± 1.1%

relaxin
Emax (%) ± SEM cAMP (rat RXFP1; HEK_ratRXFP1 cells, % of 100 nM relaxin response, n = 6): 95.6 ± 0.8%
EC50 (rat RXFP1; HEK_ratRXFP1 cells, geometric mean of relative EC50 with 95% CI, n = 6): 1.4 nM
Emax (%) ± SEM cAMP (RXFP1 [1]; EA.hy926_hRXFP1 cells, % of 100 nM relaxin response, n = 5): 100.1 ± 0.7%
Emax (%) ± SEM cAMP (RXFP1 [2]; OVCAR5 cells, % of 100 nM relaxin response, n = 6): 96.2 ± 0.8%
